Literature values as cited in patent US20020193313A1, “Method of increasing the efficacy of chemotherapy in the treatment of tumors” (priority 2001, published 2002).

How the values were obtained:
[1] = test system: locally advanced breast cancer; details: Tamoxifen to induce cell phase arrest, then estrogen to stimulate growth, 43% without synchronization
various types of cancer = details: in vitro
[2] = test system: advanced stages of different types of cancer; details: topotecan for S phase synchronization followed by doxorubicin

CC/C(=C(\c1ccccc1)c1ccc(OCCN(C)C)cc1)c1ccccc1 [Tamoxifen]
patients whose tumors showed favorable response to phase specific chemotherapy [1]: approximately 82%

CC/C=C\C/C=C\C/C=C\CCCCCCCC(=O)O [alpha linoleic acid]
effect on tumor growth (tumor growth): stimulate tumor growth

C[C@@]1(CO)[C@H](O)CC[C@@]2(C)[C@H]1CC[C@H]1C[C@@H]3C[C@@]12CC[C@]3(O)CO [aphidicoline]
phase of cell cycle arrest (in vitro T-cell lymphoma): arrest late in the G1 phase

NC(=O)NO [hydrea]
phase of cell cycle arrest (in vitro T-cell lymphoma): arrest in the S phase

NC(Cn1ccc(=O)c(O)c1)C(=O)O (stereo not shown) [mimosine]
phase of cell cycle arrest (in vitro T-cell lymphoma): arrest in the G1 phase

COC(=O)Nc1nc2ccc(C(=O)c3cccs3)cc2[nH]1 [nocodazole]
phase of cell cycle arrest (in vitro T-cell lymphoma): arrest in the M-phase

Cc1c(N)nc([C@H](CC(N)=O)NC[C@H](N)C(N)=O)nc1C(=O)N[C@H](C(=O)N[C@H](C)[C@@H](O)[C@H](C)C(=O)N[C@H](C(=O)NCCc1nc(-c2nc(C(=O)NCCCN[C@@H](C)c3ccccc3)cs2)cs1)[C@@H](C)O)[C@@H](O[C@@H]1O[C@@H](CO)[C@@H](O)[C@H](O)[C@@H]1O[C@H]1O[C@H](CO)[C@@H](O)[C@H](OC(N)=O)[C@@H]1O)c1c[nH]cn1 [peplomycin]
cell cycle arrest (various types of cancer): arrest the cell cycle

C=C[C@H]1C[N@@]2CC[C@H]1C[C@@H]2[C@@H](O)c1ccnc2ccc(OC)cc12 [quinidine]
phase of cell cycle arrest (in vitro breast cancer): arrest of in vitro breast cancer in the G1 phase

CC[C@@]1(O)C(=O)OCc2c1cc1n(c2=O)Cc2cc3c(CN(C)C)c(O)ccc3nc2-1 [topotecan]
hematologic toxicity [2]: increased hematologic toxicity

epidermal growth factor
phase of cell cycle arrest (in vitro breast cancer): arrest of in vitro breast cancer in the G1 phase
